target: T1, recombinant human FLAP protein (Homo sapiens, UniProt P20292); assay: FLAP binding assay, displacement of iodinated (125I) FLAP inhibitor, Scintillation Proximity Assay format; details: [125I]L-691,831 probe, membrane protein from sf9 cells; read-out: hFLAP binding IC50
T1 construct: made in house; host or cells: Sf9 insect cells (membrane fraction, 100,000 x g pellet)
T1 sequence (P20292 1-161): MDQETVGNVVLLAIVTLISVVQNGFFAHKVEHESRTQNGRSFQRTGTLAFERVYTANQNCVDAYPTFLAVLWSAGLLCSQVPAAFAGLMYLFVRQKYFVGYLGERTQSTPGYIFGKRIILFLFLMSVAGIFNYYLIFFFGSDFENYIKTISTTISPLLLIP
Protocol: Compounds are assessed for the ability to bind to FLAP in a binding assay that measures compound-specific displacement of an iodinated (^125I) FLAP inhibitor via a Scintillation Proximity Assay format (adapted from S. Charleson et al., Mol. Pharmacol., 1992, 41, 873-879).
Cell pellets produced from sf9 insect cells expressing recombinant human FLAP protein are resuspended in buffer A [15 mM Tris-HCl (pH 7.5), 2 mM MgCl2, 0.3 mM EDTA, 1 mM PMSF]. The cells are lysed with a Dounce homogenizer and the material is centrifuged at 10,000×g for 10 minutes. The supernatant is then collected and centrifuged at 100,000×g for 60 minutes. To prepare membrane protein for an assay, an aliquot of the 100,000×g pellet is resuspended in 1 ml of buffer A, Dounce homogenized, and finally subjected to polytron mixing (30 seconds). Membrane protein (25 μl, 5 μg) is mixed with WGA SPA beads (Amersham) and stirred for 1 h. To an assay plate (Perkin Elmer FlexiPlate) is added 25 μl of test compound prepared in Binding buffer [100 mM Tris (pH 7.5), 140 mM NaCl, 5% glycerol, 2 mM EDTA, 0.5 mM TCEP, 0.05% Tween 20], 25 μl of [^125I]L-691,831 (an iodinated analog of MK-591, Charleson et al. Mol. Pharmacol., 41, 873-879, 1992) and finally 50 μl of the bead/protein mixture. (final concentrations: beads, 200 μg/well; protein, 5 μg/well; [^125I] probe, 0 08 nM/well (17 nCi/well). The plates are shaken for 2 h before reading on a Microbeta plate reader. Non-specific binding is determined by the addition of 10 μM cold L-691,831 compound.

SMILES | IC50 [nM]
COC(=O)c1ncn(-c2ccc(C#N)cc2-c2nc3cc(-c4cnc(N)nc4)ccc3n2C(C)(C)C)n1 [1-{2-[5-(2-Amino-pyrimidin-5-yl)-1-tert-butyl-1H-benzoimidazol-2-yl]-4-cyano-phenyl}-1H-[1,2,4]triazole-3-carboxylic acid methyl ester] | 15.9
COCCn1cnc(-c2ccccc2-c2nc3cc(-c4cnc(N)nc4)ccc3n2C(C)(C)C)n1 [5-(1-tert-Butyl-2-{2-[1-(2-methoxy-ethyl)-1H-[1,2,4]triazol-3-yl]-phenyl}-1H-benzoimidazol-5-yl)-pyrimidin-2-ylamine] | 3.3
COc1ccc(-c2nc(C)ns2)c(-c2nc3cc(-c4cnc(N)nc4)ccc3n2C(C)(C)C)c1 [5-{1-tert-Butyl-2-[5-methoxy-2-(3-methyl-1,2,4-thiadiazol-5-yl)-phenyl]-1H-benzimidazol-5-yl}-pyrimidin-2-ylamine] | 4.3
Cc1ccn(-c2ccc(Cl)cc2-c2nc3cc(-c4cnc(N)nc4)ccc3n2C(C)(C)C)n1 [5-{1-tert-Butyl-2-[5-chloro-2-(3-methyl-pyrazol-1-yl)-phenyl]-1H-benzimidazol-5-yl}-pyrimidin-2-ylamine] | 0.71
Cn1ncnc1-c1ccccc1-c1nc2cc(-c3cnc(N)nc3)ccc2n1C(C)(C)C [5-{1-tert-Butyl-2-[2-(2-methyl-2H-1,2,4-triazol-3-yl)-phenyl]-1H-benzimidazol-5-yl}-pyrimidin-2-ylamine] | 6.1
CC(C)(C)n1c(-c2ccccc2-n2cc(Cl)cn2)nc2cc(-c3cnc(N)nc3)ccc21 [5-{1-tert-Butyl-2-[2-(4-chloro-pyrazol-1-yl)-phenyl]-1H-benzimidazol-5-yl}-pyrimidin-2-ylamine] | 4.1
CC(C)(C)n1c(-c2ccccc2-c2ccno2)nc2cc(-c3cnc(N)nc3)ccc21 [5-[1-tert-butyl-2-(2-isoxazol-5-yl-phenyl)-1H-benzoimidazol-5-yl]-pyrimidin-2-ylamine] | 2.4
Cc1noc(-c2ccccc2-c2nc3cc(-c4cnc5[nH]ccc5c4)ccc3n2C(C)(C)C)n1 [1-tert-Butyl-2-[2-(3-methyl-1,2,4-oxadiazol-5-yl)-phenyl]-5-(1H-pyrrolo[2,3-b]pyridin-5-yl)-1H-benzimidazole] | 1.2
COc1ccc(-n2ncnc2C)c(-c2nc3cc(-c4cnc(N)nc4)ccc3n2C(C)(C)C)c1 [5-{1-tert-Butyl-2-[5-methoxy-2-(5-methyl-1,2,4-triazol-1-yl)-phenyl]-1H-benzimidazol-5-yl}-pyrimidin-2-ylamine] | 1.5
Cc1ccc(-n2cnc(C)n2)c(-c2nc3cc(-c4cnc(N)nc4)ccc3n2C(C)(C)C)c1 | 1.7
CN(C)C(=O)Oc1ccc(-n2cncn2)c(-c2nc3cc(-c4cnc(N)nc4)ccc3n2C(C)(C)C)c1 [Dimethyl-carbamic acid 3-[5-(2-amino-pyrimidin-5-yl)-1-tert-butyl-1H-benzimidazol-2-yl]-4-1,2,4-triazol-1-yl-phenyl ester] | 15.5
CC(C)(C)n1c(-c2cc(F)ccc2-n2cccn2)nc2cc(-c3cnc(N)nc3)ccc21 [5-[1-tert-Butyl-2-(5-fluoro-2-pyrazol-1-yl-phenyl)-1H-benzimidazol-5-yl]-pyrimidin-2-ylamine] | 1.7
Cc1c(-c2ccc(-n3cncn3)c(-c3nc4cc(-c5cnc(N)nc5)ccc4n3C(C)(C)C)c2)cnn1C [5-{1-tert-Butyl-2-[5-(1,5-dimethyl-1H-pyrazol-4-yl)-2-[1,2,4]triazol-1-yl-phenyl]-1H-benzoimidazol-5-yl}-pyrimidin-2-ylamine] | 4
CC(C)(C)n1c(-c2cc(C(F)(F)F)ccc2-n2cncn2)nc2cc(-c3cnc(N)nc3)ccc21 | 2.4
Cc1ccnn1-c1ccc(C#N)cc1-c1nc2cc(-c3cnc(N)nc3)ccc2n1C(C)(C)C [3-[5-(2-Amino-pyrimidin-5-yl)-1-tert-butyl-1H-benzoimidazol-2-yl]-4-(5-methyl-pyrazol-1-yl)-benzonitrile] | 1.3
Cc1nc(C)n(-c2ccc(C#N)cc2-c2nc3cc(-c4cnc(N)nc4)ccc3n2C(C)(C)C)n1 [3-[5-(2-Amino-pyrimidin-5-yl)-1-tert-butyl-1H-benzoimidazol-2-yl]-4-(3,5-dimethyl-[1,2,4]triazol-1-yl)-benzonitrile] | 2.5

SMILES | IC50 [nM]
Cc1ccc(-n2cncn2)c(-c2nc3cc(-c4cnc(N)nc4)ccc3n2C(C)(C)C)c1 | 1.6
Cc1ccc(-c2nc(C)no2)c(-c2nc3cc(-c4cnc(N)nc4)ccc3n2C(C)(C)C)c1 [5-{1-tert-Butyl-2-[5-methyl-2-(3-methyl-1,2,4-oxadiazol-5-yl)-phenyl]-1H-benzimidazol-5-yl}-pyrimidin-2-ylamine] | 1.8
CC(C)(C)n1c(-c2cc(F)ccc2-n2cncn2)nc2cc(-c3cnc(N)nc3)ccc21 | 1.4
CC(C)(C)n1c(-c2cc(Cl)ccc2-n2cncn2)nc2cc(-c3cnc(N)nc3)ccc21 [5-[1-tert-Butyl-2-(5-chloro-2-1,2,4-triazol-1-yl-phenyl)-1H-benzimidazol-5-yl]-pyrimidin-2-ylamine] | 3
COC(=O)c1cc(-c2ccc(-n3cncn3)c(-c3nc4cc(-c5cnc(N)nc5)ccc4n3C(C)(C)C)c2)cs1 [4-{3-[5-(2-Amino-pyrimidin-5-yl)-1-tert-butyl-1H-benzoimidazol-2-yl]-4-[1,2,4]triazol-1-yl-phenyl}-thiophene-2-carboxylic acid methyl ester] | 5.2
CC(C)(C)n1c(-c2cc(-c3csc(C(=O)O)c3)ccc2-n2cncn2)nc2cc(-c3cnc(N)nc3)ccc21 [4-{3-[5-(2-Amino-pyrimidin-5-yl)-1-tert-butyl-1H-benzoimidazol-2-yl]-4-[1,2,4]triazol-1-yl-phenyl}-thiophene-2-carboxylic acid] | 10.6
CC(C)(Oc1ccc(-c2nc3cc(-c4cnc(N)nc4)ccc3n2C(C)(C)C)c(-n2cncn2)c1)C(=O)O [2-{4-[5-(2-Amino-pyrimidin-5-yl)-1-tert-butyl-1H-benzoimidazol-2-yl]-3-[1,2,4]triazol-1-yl-phenoxy}-2-methyl-propionic acid] | 5.5
CC(C)(C)n1c(-c2cc(-c3nn[nH]n3)ccc2-n2cncn2)nc2cc(-c3cnc(N)nc3)ccc21 [5-{1-tert-Butyl-2-[5-(2H-tetrazol-5-yl)-2-[1,2,4]triazol-1-yl-phenyl]-1H-benzoimidazol-5-yl}-pyrimidin-2-ylamine] | 4.6
Cn1ncnc1-c1ccc(F)cc1-c1nc2cc(-c3cnc(N)nc3)ccc2n1C(C)(C)C [5-{1-tert-Butyl-2-[5-fluoro-2-(2-methyl-2H-1,2,4-triazol-3-yl)-phenyl]-1H-benzimidazol-5-yl}-pyrimidin-2-ylamine] | 1.6
COc1ccc(-c2csc(C)n2)c(-c2nc3cc(-c4cnc(N)nc4)ccc3n2C(C)(C)C)c1 [5-{1-tert-Butyl-2-[5-methoxy-2-(2-methyl-thiazol-4-yl)-phenyl]-1H-benzimidazol-5-yl}-pyrimidin-2-ylamine] | 1.7
Cc1noc(-c2ccc(Cl)cc2-c2nc3cc(-c4cnc(N)nc4)ccc3n2C(C)(C)C)n1 [5-{1-tert-Butyl-2-[5-chloro-2-(3-methyl-1,2,4-oxadiazol-5-yl)-phenyl]-1H-benzimidazol-5-yl}-pyrimidin-2-ylamine] | 1.9
CC(C)(C)n1c(-c2ccccc2-n2ccc(C(F)(F)F)n2)nc2cc(-c3cnc(N)nc3)ccc21 [5-{1-tert-Butyl-2-[2-(3-trifluoromethyl-pyrazol-1-yl)-phenyl]-1H-benzimidazol-5-yl}-pyrimidin-2-ylamine] | 4.5
CC(C)COC(=O)c1ncn(-c2ccc(C#N)cc2-c2nc3cc(-c4cnc(N)nc4)ccc3n2C(C)(C)C)n1 [1-{2-[5-(2-Amino-pyrimidin-5-yl)-1-tert-butyl-1H-benzoimidazol-2-yl]-4-cyano-phenyl}-1H-[1,2,4]triazole-3-carboxylic acid isobutyl ester] | 12.4
CC(C)(COc1ccc(-n2cncn2)c(-c2nc3cc(-c4cnc(N)nc4)ccc3n2C(C)(C)C)c1)C(=O)O [3-{3-[5-(2-Amino-pyrimidin-5-yl)-1-tert-butyl-1H-benzimidazol-2-yl]-4-1,2,4-triazol-1-yl-phenoxy}-2,2-dimethyl-propionic acid] | 5.9
COc1ccc(-n2cnc(C)n2)c(-c2nc3cc(-c4cnc(N)nc4)ccc3n2C(C)(C)C)c1 [5-{1-tert-Butyl-2-[5-methoxy-2-(3-methyl-1,2,4-triazol-1-yl)-phenyl]-1H-benzimidazol-5-yl}-pyrimidin-2-ylamine] | 2.2
COc1ccc(-c2nc3cc(-c4cnc(N)nc4)ccc3n2C(C)(C)C)c(-n2cncn2)c1 [5-[1-tert-Butyl-2-(4-methoxy-2-1,2,4-triazol-1-yl-phenyl)-1H-benzimidazol-5-yl]-pyrimidin-2-ylamine] | 2.9

Reference: patent US8420655B2, “Benzimidazole inhibitors of leukotriene production” (Boehringer Ingelheim International GmbH, priority 2009, dated 2013)
